Test results as given in publication PMC4792582, “Effect of ceritinib (LDK378) on enhancement of chemotherapeutic agents in ABCB1 and ABCG2 overexpressing cells in vitro and in vivo” (Oncotarget, 2015).

What was measured:
ABCG2 (BCRP/MXR) [1] = biological target: T1, ABCG2 (BCRP/MXR) (Homo sapiens, UniProt Q9UNQ0); assay: competition of […]-IAAP photoaffinity labeling in membranes; also effect on vanadate-sensitive ATPase activity; type: binding; design: Crude membranes from High Five insect cells expressing ABCG2
T1 sequence (Q9UNQ0 1-655): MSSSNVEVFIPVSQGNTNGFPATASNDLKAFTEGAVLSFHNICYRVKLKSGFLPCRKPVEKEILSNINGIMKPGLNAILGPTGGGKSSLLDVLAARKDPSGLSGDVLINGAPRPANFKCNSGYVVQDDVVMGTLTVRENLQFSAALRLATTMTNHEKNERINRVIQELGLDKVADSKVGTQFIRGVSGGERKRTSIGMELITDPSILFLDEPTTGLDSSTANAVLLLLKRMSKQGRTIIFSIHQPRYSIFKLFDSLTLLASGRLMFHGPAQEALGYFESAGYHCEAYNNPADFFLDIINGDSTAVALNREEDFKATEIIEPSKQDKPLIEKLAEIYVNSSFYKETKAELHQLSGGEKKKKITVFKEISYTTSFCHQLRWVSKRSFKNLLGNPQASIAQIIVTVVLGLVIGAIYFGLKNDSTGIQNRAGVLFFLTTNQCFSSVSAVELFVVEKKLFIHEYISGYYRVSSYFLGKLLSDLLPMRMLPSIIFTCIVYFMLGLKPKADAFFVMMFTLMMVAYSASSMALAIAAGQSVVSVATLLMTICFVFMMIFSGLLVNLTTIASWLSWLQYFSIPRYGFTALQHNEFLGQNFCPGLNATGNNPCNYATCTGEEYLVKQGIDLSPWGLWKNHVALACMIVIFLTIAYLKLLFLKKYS

ABCG2 (BCRP/MXR) [2] = biological target: T1, ABCG2 (BCRP/MXR); assay: reversal of mitoxantrone resistance in ABCG2-transfected versus mock HEK293 cells (MTT), […]; type: cell-based; design: HEK293/ABCG2-R2 stably transfected cells

SMILES	competition of [125I]-IAAP photoaffinity labeling in membranes; also effect on v (ABCG2 (BCRP/MXR) [1])	(fold-reversal) / HEK293/ABCB1 (ABCG2 (BCRP/MXR) [2]) [fold-reversal]
Cc1cc(Nc2ncc(Cl)c(Nc3ccccc3S(=O)(=O)C(C)C)n2)c(OC(C)C)cc1C1CCNCC1 [Ceritinib, 5-chloro-N2-(2-isopropoxy-5-methyl-4-(piperidin-4-yl)phenyl)-N4-(2-(isopropylsulfonyl)phenyl)pyrimidine-2,4-diamine]	ceritinib binds with high affinity to both the ABCB1 and ABCG2 substrate-binding sites	
COc1ccc2c3c([nH]c2c1)[C@H](C=C(C)C)N1C(=O)[C@@H]2CCCN2C(=O)[C@@H]1C3 [Fumitremorgin C]		26.81
